According to ChEMBL document CHEMBL6120941, “Discovery of SIRT1-Activating Hydrogen Sulfide Donating Derivatives for Efficient Resistant of Myocardial Ischemic Injury” (J Med Chem, 2024):
The source made the active and inactive calls. The rule behind the calls is not given here.

Assays:
H9c2 [1] = experiment: Cardioprotective activity against CoCl2-induced cellular hypoxia injury in rat H9c2 cells assessed as rate of necrosis at 10 uM incubated for 24 hrs in presence of GSSG by flow cytometry (reference value: 22.5 %); format: functional
H9c2 [2] = experiment: Cardioprotective activity against CoCl2-induced cellular hypoxia injury in rat H9c2 cells assessed as inhibition of CoCl2-induced morphological changes at 5 to 10 uM incubated for 24 hrs by fluorescence based analysis; format: functional, cell-based; details: dose 5-10 µM
H9c2 [3] = experiment: Cardioprotective activity against CoCl2-induced cellular hypoxia injury in rat H9c2 cells assessed as cell viability at 1.25 uM incubated for 24 hrs by CCK-8 assay (reference value: 51.80 +/- 2.58 %); format: functional; details: read-out: Activity
Rattus norvegicus [4] = experiment: Cardioprotective activity in myocardial ischemia Sprague-Dawley rat model assessed as decrease in ISO-induced ST segment at 10 to 30 mg/kg, IG treated for 7 days consecutively followed by ISO administration daily for 2 days consecutively by ECG analysis; format: functional, organism-based; details: dose 10-30 mg/kg, time 9.0 day
H9c2 [5] = experiment: Cardioprotective activity against CoCl2-induced cellular hypoxia injury in rat H9c2 cells assessed as preservation of nuclear morphology at 5 to 10 uM incubated for 24 hrs by Hoechst 33258 nuclear staining based analysis; format: functional, cell-based; details: dose 5-10 µM
[6] = Induction of H2S release in PBS at pH 7.4 measured upto 60 mins by methylene blue method; format: functional
H9c2 [7] = experiment: Upregulation of SIRT1 mRNA level in CoCl2-induced cellular hypoxia injury in rat H9c2 cells at 5 to 10 uM incubated for 24 hrs by qPCR analysis; format: functional, cell-based; details: dose 5-10 µM
Rattus norvegicus [8] = experiment: Cardioprotective activity in myocardial ischemia Sprague-Dawley rat model assessed as myocardial infarction area at 30 mg/kg, IG treated for 7 days consecutively followed by ISO administration daily for 2 days consecutively by TTC staining based analysis (reference value: 32.65 %); format: functional; details: time 9 day
H9c2 [9] = experiment: Cardioprotective activity against CoCl2-induced cellular hypoxia injury in rat H9c2 cells assessed as rate of apoptosis at 10 uM incubated for 24 hrs in presence of GSSG by flow cytometry (reference value: 19.5 %); format: functional
Rattus norvegicus [10] = experiment: Cardioprotective activity in myocardial ischemia Sprague-Dawley rat model assessed as decrease in myocardial injury administered intragastrically for 7 days consecutively followed by ISO administration daily for 2 days consecutively by H and E/Masson staining based analysis; format: functional, organism-based; details: dose 10-30 mg/kg, route ig, time 9.0 day
H9c2 [11] = experiment: Cardioprotective activity against CoCl2-induced cellular hypoxia injury in rat H9c2 cells assessed as cell viability at 2.5 uM incubated for 24 hrs by CCK-8 assay (reference value: 51.80 +/- 2.58 %); format: functional; details: read-out: Activity
H9c2 [12] = experiment: Cardioprotective activity against CoCl2-induced cellular hypoxia injury in rat H9c2 cells assessed as mitochondrial membrane potential at 10 uM incubated for 24 hrs in presence of GSSG by JC-1 staining based analysis (reference value: 48.08 %); format: functional
H9c2 [13] = experiment: Antioxidant activity against CoCl2-induced cellular hypoxia injury in rat H9c2 cells assessed as decrease in hypoxia-induced LDH release at 5 to 10 uM incubated for 24 hrs; format: functional, cell-based; details: dose 5-10 µM
H9c2 [14] = experiment: Cardioprotective activity against CoCl2-induced cellular hypoxia injury in rat H9c2 cells assessed as cell viability at 0.625 uM incubated for 24 hrs by CCK-8 assay (reference value: 51.80 +/- 2.58 %); format: functional; details: read-out: Activity
H9c2 [15] = experiment: Antioxidant activity against CoCl2-induced cellular hypoxia injury in rat H9c2 cells assessed as decrease in hypoxia-induced LDH release at 10 uM incubated for 24 hrs in presence of GSSG; format: functional, cell-based
H9c2 [16] = experiment: Cardioprotective activity against CoCl2-induced cellular hypoxia injury in rat H9c2 cells assessed as increase in hypoxia-reduced ATP production in mitochondria at 5 to 10 uM incubated for 24 hrs by bioluminescence assay; format: functional, cell-based; details: dose 5-10 µM
H9c2 [17] = experiment: Induction of H2S release in rat H9c2 cells incubated for 24 hrs by AzMC probe based analysis; format: functional, cell-based; details: dose 1.25-10 µM
H9c2 [18] = experiment: Cardioprotective activity against CoCl2-induced cellular hypoxia injury in rat H9c2 cells assessed as reduction in hypoxia-induced apoptosis at 5 to 10 uM incubated for 24 hrs by Hoechst 33258 nuclear staining based analysis; format: functional, cell-based; details: dose 5-10 µM
H9c2 [19] = experiment: Antioxidant activity against CoCl2-induced cellular hypoxia injury in rat H9c2 cells assessed as decrease in hypoxia-induced MDA level at 5 to 10 uM incubated for 24 hrs; format: functional, cell-based; details: dose 5-10 µM
Rattus norvegicus [20] = experiment: Cardioprotective activity in myocardial ischemia Sprague-Dawley rat model assessed as improvement in tissue clearance at 10 to 30 mg/kg, IG treated for 7 days consecutively followed by ISO administration daily for 2 days consecutively by H and E/Masson staining based analysis; format: functional, organism-based; details: dose 10-30 mg/kg, time 9.0 day
H9c2 [21] = experiment: Cardioprotective activity against CoCl2-induced cellular hypoxia injury in rat H9c2 cells assessed as ROS accumulation at 10 uM incubated for 24 hrs by DCFH-DA probe based analysis (reference value: 28.03 %); format: functional
H9c2 [22] = experiment: Cardioprotective activity against CoCl2-induced cellular hypoxia injury in rat H9c2 cells assessed as reduction in apoptosis at 5 to 10 uM incubated for 24 hrs by flow cytometry; format: functional, cell-based; details: dose 5-10 µM
H9c2 [23] = experiment: Cardioprotective activity against CoCl2-induced cellular hypoxia injury in rat H9c2 cells assessed as mitochondrial membrane potential at 10 uM incubated for 24 hrs by JC-1 staining based analysis (reference value: 48.08 %); format: functional
H9c2 [24] = experiment: Antioxidant activity against CoCl2-induced cellular hypoxia injury in rat H9c2 cells assessed as increase in Nrf2 level at 5 to 10 uM incubated for 24 hrs by Western blot analysis; format: functional, cell-based; details: dose 5-10 µM
[25] = Induction of H2S […] activity in presence of GSSH; format: functional
H9c2 [26] = experiment: Cardioprotective activity against CoCl2-induced cellular hypoxia injury in rat H9c2 cells assessed as cell viability at 5 uM incubated for 24 hrs by CCK-8 assay (reference value: 51.80 +/- 2.58 %); format: functional; details: read-out: Activity
Rattus norvegicus [27] = experiment: Cardioprotective activity in myocardial ischemia Sprague-Dawley rat model assessed as improvement in positional rearrangement at 10 to 30 mg/kg, IG treated for 7 days consecutively followed by ISO administration daily for 2 days consecutively by H and E/Masson staining based analysis; format: functional, organism-based; details: dose 10-30 mg/kg, time 9.0 day
Rattus norvegicus [28] = experiment: Cardioprotective activity in myocardial ischemia Sprague-Dawley rat model assessed as improvement in cell volume size at 10 to 30 mg/kg, IG treated for 7 days consecutively followed by ISO administration daily for 2 days consecutively by H and E/Masson staining based analysis; format: functional, organism-based; details: dose 10-30 mg/kg, time 9.0 day
[29] = Toxicity in myocardial ischemia Sprague-Dawley rat model assessed as change in body weight at 10 to 30 mg/kg, IG treated for 7 days consecutively followed by ISO administration daily for 2 days consecutively; format: organism-based; details: in vivo, po, 216 h, dose 10-30 mg/kg, time 9 day
Rattus norvegicus [30] = experiment: Cardioprotective activity against myocardial ischemia Sprague-Dawley rat model assessed as increase in PGC1-alpha level in myocardial tissue at 10 to 30 mg/kg, IG treated for 7 days consecutively followed by ISO administration daily for 2 days consecutively by Western blot analysis; format: functional, organism-based; details: dose 10-30 mg/kg, time 9.0 day

SMILES: C=CCSSCCC(=O)O[C@H]1CC[C@]2(C)[C@H]3C[C@@H](O)[C@@H]4[C@@H]([C@]5(C)CC[C@@H](C(C)(C)O)O5)CC[C@@]4(C)[C@]3(C)CC[C@H]2C1(C)C
- Activity (H9c2 [1]): 7.54%
- inhibition (H9c2 [2]): Active
- viability at 1.25 µM (H9c2 [3]): 85.7%
- Activity (Rattus norvegicus [4]): Active
- Activity (H9c2 [5]): Active
- Activity [6]: 30.7 µM
- Activity (H9c2 [7]): Active
- Activity (Rattus norvegicus [8]): 13.24%
- Activity (H9c2 [9]): 8.01%
- Activity (Rattus norvegicus [10]): Dose-dependent-effect
- viability at 2.5 µM (H9c2 [11]): 87.8%
- Activity (H9c2 [12]): 61.96%
- Activity (H9c2 [13]): Active
- viability at 0.625 µM (H9c2 [14]): 76.5%
- Activity (H9c2 [15]): inactive
- Activity (H9c2 [16]): Active
- Activity (H9c2 [17]): Dose-dependent-effect; Exhibited Highest Release Efficiency Among Tested Compounds
- Activity (H9c2 [18]): Active
- Activity (H9c2 [19]): Active
- Activity (Rattus norvegicus [20]): Active
- Activity (H9c2 [21]): 4.74%
- Activity (H9c2 [22]): Active
- Activity (H9c2 [23]): 92.84%
- Activity (H9c2 [24]): Active
- Activity [25]: 18.6%
- viability at 5 µM (H9c2 [26]): 94.2%
- Activity (Rattus norvegicus [27]): Active
- Activity (Rattus norvegicus [28]): Active
- Activity [29]: Non-toxic
- Activity (Rattus norvegicus [30]): Active
